One data set deals with healthy adult subjects. Put plainly: Study 1 (SAD) safety and tolerability: TEAEs. It counts as in vivo. An excerpt: Study 1 (B7921001; NCT02224651) was a 96-day, phase 1, within-cohort, randomized, double-blind, sponsor-open, placebo-substitution, five-period crossover, SAD study in healthy adult subjects (Fig. 1a). Subjects were sequentially enrolled into four cohorts of ten subjects each. Within each cohort, the subjects were randomized into a maximum of five periods. Within each period, eight subjects and two subjects were randomized to receive PF-06650833 and placebo, respectively. In this placebo-substitution design, all subjects within a cohort received one or more doses of PF-06650833 and/or placebo. Single oral doses of PF-06650833 IR formulations from 1 to 6000 mg, and MR formulations from 30 to 300 mg, were administered in fasted (overnight fast of ≥ 10 h) and/or fed (high-fat breakfast meal) states. Doses were escalated sequentially by period within each cohort (see Fig. 1a for final dosing scheme), based upon the evaluation of ≥ 48 h of safety and tolerability for all subjects and ≥ 8 h of PK data for at least six subjects receiving PF-06650833 and one subject receiving placebo. Dose escalation was to cease when either the limits of safety and/or tolerability were reached, the projected exposure at the subsequent dose exceeded the toxicokinetic limit (TK) established based on the no observable adverse effect level (NOAEL) in relevant animal studies, or a plateau in exposure was reached.
The effects of food on the plasma PK profile of the IR and MR formulations were explored in cohorts 1 and 3, respectively, by administering 30 mg doses of PF-06650833 in a fasted state and after a high-fat meal. A 1000-mg dose of the IR formulation was also tested in cohort 3 in an attempt to identify a maximum tolerated dose (MTD). Since TK limits were not reached with the IR formulation at doses up to 1000 mg, the IR doses were escalated to 2000 and 6000 mg with a high-fat meal in cohort 4 (Fig. 1a).
Safety assessments included incidence and severity of treatment-emergent AEs (TEAEs) and discontinuation due to TEAEs, incidence of treatment-emergent clinical laboratory abnormalities, and proportion of subjects meeting with pre-defined criteria for potential clinical concern in vital signs and electrocardiogram (ECG) parameters.
The safety analysis set was defined as all subjects who received at least one dose of study treatment, and data were summarized descriptively. The PK concentration analysis set was defined as all enrolled, treated subjects who had at least one concentration in at least one treatment period. The PK parameter analysis set was defined as all enrolled, treated subjects who had at least one of the PK parameters of interest in at least one treatment period. The PD analysis set was defined as all enrolled subjects who received at least one dose of PF-06650833 and had at least one PD parameter. PK/PD data were summarized descriptively.

The test system of another data set is CYP3A. Put plainly: 4β-hydroxycholesterol/cholesterol ratio as endogenous marker of CYP3A. Conditions: MAD, doses up to 750 mg BID. The class given is in vivo, human. From the text:
The primary objective of study 2 was to determine the safety and tolerability of MAD of orally administered IR and MR formulations of PF-06650833 after a standard meal in healthy adult subjects. The secondary objective was to evaluate the plasma and urine PK profiles of PF-06650833 after repeat dosing. Exploratory objectives were to assess the effects of PF-06650833 on exploratory biomarkers of PD activity, including high-sensitivity C-reactive protein (hsCRP), and to evaluate cholesterol/hydroxycholesterol ratios as an endogenous marker for cytochrome P450 3A (CYP3A) induction or inhibition.
For both studies, samples of blood (and urine in study 2) were taken for evaluation of PK/PD parameters (see Additional file 1: Supplemental Methods). […] Plasma and urine samples were analyzed using validated, sensitive, and specific liquid chromatography tandem mass spectrometric methods (at Pfizer Inc., Groton, CT, USA, for study 1 and at Worldwide Pharmacokinetics, Dynamics and Metabolism, Cambridge, MA, USA, for study 2). The lower limit of quantification for PF-06650833 in plasma was 0.0500 ng/mL. The lower limit of quantification for PF-06650833 in urine was 1.00 ng/mL. Serum samples were also analyzed for hsCRP, and plasma samples were analyzed for 4β-hydroxycholesterol and cholesterol. […]
35 Plasma samples were analyzed using a validated, sensitive , and specific liquid […]

[1] abbreviates: IR 2000 mg single dose, fed (high-fat), 8 evaluable.

On to `CC[C@@H]1[C@H](F)C(=O)N[C@@H]1COc1nccc2cc(C(N)=O)c(OC)cc12` [PF-06650833, 1-{[(2S,3S,4S)-3-Ethyl-4-fluoro-5-oxopyrrolidin-2-yl]methoxy}-7-methoxyisoquinoline-6-carboxamide], for which the “Infections and infestations: subjects with AE, all causalities (treatment-related)” value with healthy adult subjects (IR 1 mg single dose, fasted, 8 evaluable) was 1 (0). Also, in the data set with healthy adult subjects (setting [1]), the “Infections and infestations: subjects with AE, all causalities (treatment-related)” value is listed as 1 (0); the “Upper respiratory tract infection: subjects with AE, all causalities (treatment-related)” value is recorded as 1 (0). For the same compound, the “Serious AEs or deaths” value with healthy adult subjects (all dose groups) is given as “No serious AEs or deaths”. In addition, in the data set on healthy adult subjects (human, in vivo), the “Subjects with treatment-related TEAEs” value is 4 and the “Total treatment-related TEAEs” value amounted to 10. Moreover, in the data set on healthy adult subjects (in vivo), the “Severity of TEAEs” value was “mild or moderate” and the “Treatment-related TEAEs” value is “No treatment-related TEAEs”. Further, the Maximum tolerated dose result with healthy adult subjects (single doses IR up to 6000 mg, MR up to 300 mg) was “not established”. The “CYP3A induction or inhibition based on cholesterol/hydroxycholesterol ratio” value in the data set on CYP3A is recorded as “no apparent trend for CYP3A induction or inhibition”.

Source of the values: PMC6896740, “Safety, tolerability, pharmacokinetics, and pharmacodynamics of PF-06650833, a selective interleukin-1 receptor-associated kinase 4 (IRAK4) inhibitor, in single and multiple ascending dose randomized phase 1 studies in healthy subjects” (Arthritis Research & Therapy, 2019).
